Experimental data published in patent publication US8771641B2, “Aryloxyanilide imaging agents” (priority 2009, dated 2014).

Legend:
[1] = cited from earlier work
PBR [2] = target: PBR (Homo sapiens, UniProt P30536); details: in vivo; cited from earlier work
Wistar rat heart PBR = Wistar rat heart PBR (Rattus norvegicus, UniProt P16257); assay: biochemical
Protocol: Affinity for PBR was screened using a method adapted from Le Fur et al (Life Sci. 1983; USA 33: 449-57).
Each test compound (dissolved in 50 mM Tris-HCl, pH 7.4, 10 mM MgCl2 containing 1% DMSO) competed for binding to Wistar rat heart PBR against 0.3 nM [^3H] […] The reaction was carried out in 50 mM Tris-HCl, pH 7.4 10 mM MgCl2 for 15 minutes at 25° C.

PBR [3] = target: T1, PBR (Rattus norvegicus, UniProt P16257); assay: In vivo biodistribution model: OB:striatum uptake; parameters: species or system Wistar rats; details: injection via lateral tail vein, 2, 10, 30 or 60 min, in words, compared with PBR06
T1 construct: OB is known to express higher levels of PBR compared with other areas of rat brain; from tissue; host or cells: living Wistar rats; olfactory bulb and striatum sampled
T1 sequence (P16257 whole entry): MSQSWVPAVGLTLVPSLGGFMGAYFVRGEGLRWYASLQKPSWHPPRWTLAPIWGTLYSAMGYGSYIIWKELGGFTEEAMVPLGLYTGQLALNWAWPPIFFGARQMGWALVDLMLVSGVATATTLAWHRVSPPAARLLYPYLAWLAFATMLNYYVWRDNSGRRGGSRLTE
Protocol: Example 11 describes the rat biodistribution model that was used to compare in vivo imaging agents of the invention with PBR06. […] As OB is known to express higher levels of PBR compared with other areas of rat brain (see “Handbook of Substance Abuse” by Tarter, Ammerman and Ott; Springer 1998: 398-99) the ratio OB:striatum is a measure of specificity of test compound uptake.
PBR06 (synthesised according to Briard et al J Med Chem 2009; 52: 688-699) and in vivo imaging agents 1-3 were tested in an in vivo biodistribution model and their respective biodistributions compared.
Adult male Wistar rats (200-300 g) were injected with 1-3 MBq of test compound via the lateral tail vein. At 2, 10, 30 or 60 min (n=3) after injection, rats were euthanised and tissues or fluids were sampled for radioactive measurement on a gamma counter.

[4] = Briard et al J Med Chem 2009; cited from earlier work
[5] = Metabolism assay: intact test compound in rat brain by HPLC; assay type: in vivo, Wistar rats; details: 60 minutes post-injection; for proportion intact in the brain (in words): compared with PBR06
Protocol: Example 12 describes the assay used to evaluate the amount of intact test in vivo imaging agent in rat brain at 60 minutes post-injection.
Brain tissue samples were collected from adult male Wistar rats (200-300 g) at 60 minutes after injection of test in vivo imaging agent. These samples were then processed via solvent extraction (see below) to extract the ^18F-labelled parent along with any ^18F-labelled metabolites, before introduction to the HPLC.
Brain (minus cerebellum +medulla pons) was homogenized with 10 mls of ice-cold Acetonitrile (5000 rpm for 5 mins) to extract all the ^18F-labelled species. The resulting supernatant was then evaporated to dryness (rotary evaporation at 40° C.), concentrated in 2.5 mls of mobile phase, filtered and 1 ml was injected onto the HPLC.
The HPLC set up for ^18F analysis was connected to a dual BGO radio & UV detector. A μBondapak C18 prep column was used having dimensions 7.8×300 mm; 10 μm; 125 Å. An isocratic elution system was used using between 30-40% water and between 60-70% acetonitrile. The flow rate was 3 ml/min. The aqueous to organic phase ratio was varied for each test in vivo imaging agent to obtain a parent peak at retention time at or around 10 min±2 min.

Sequence of Wistar rat heart PBR (P16257 whole entry): as above
Sequence of PBR (Homo sapiens, UniProt P30536) (P30536 whole entry, species assumed): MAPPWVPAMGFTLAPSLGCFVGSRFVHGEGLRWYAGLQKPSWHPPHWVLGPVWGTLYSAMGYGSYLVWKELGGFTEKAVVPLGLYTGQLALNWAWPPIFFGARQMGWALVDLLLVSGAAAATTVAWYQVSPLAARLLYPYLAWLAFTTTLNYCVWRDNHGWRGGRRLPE

| Compound | protein binding [1] | specific to non-specific binding (PBR [2]) | Ki (Wistar rat heart PBR) [nM] | OB:striatum uptake (ratio of uptake in olfactory bulb compared to striatum) (PBR [3]) | metabolism in the periphery [4] | penetration of metabolites through the blood-brain barrier [4] | percentage of radioactivity in the brain representing intact test compound [5] [%] | proportion intact in the brain (in words) [5] |
| --- | --- | --- | --- | --- | --- | --- | --- | --- |
| CC[C@@H](C)N([11CH3])C(=O)c1cc2ccccc2c(-c2ccccc2Cl)n1 [(R)-[^11C]PK11195] | high protein binding | low specific to non-specific binding | – | – | – | – | – | – |
| COc1ccc(OC)c(CN(C(=O)C[18F])c2ccccc2Oc2ccccc2)c1 [PBR06, reference compound] | – | – | 0.28 | less than optimal for in vivo imaging | metabolised quite rapidly in the periphery | do not penetrate the blood-brain barrier | 90 | – |
| O=C(C[18F])N(Cc1cccc2c1OCC2)c1ccccc1Oc1ccccc1 [in vivo imaging agent 1] | – | – | 0.31 | taken up relatively more in the OB as compared with the striatum | – | – | 93 | even higher proportion intact in the brain at 60 minutes post-injection as compared with PBR06 |
| O=C(C[18F])N(Cc1cccc2c1OCO2)c1ccccc1Oc1ccccc1 [in vivo imaging agent 2] | – | – | 2.03 | comparable with PBR06 | – | – | 92 | even higher proportion intact in the brain at 60 minutes post-injection as compared with PBR06 |
| O=C(C[18F])N(Cc1cccc2c1OCCO2)c1ccccc1Oc1ccccc1 [in vivo imaging agent 3] | – | – | 1.14 | comparable with PBR06 | – | – | 82 | – |
| CC1(C)Cc2cccc(CN(C(=O)C[18F])c3ccccc3Oc3ccccc3)c2O1 [in vivo imaging agent 4] | – | – | 2.66 | – | – | – | – | – |
